Data reported in ChEMBL document CHEMBL5550102, “Caged xanthone derivatives to promote mitochondria-mediated apoptosis in breast cancer cells” (Bioorg Med Chem, 2024).

How the values were obtained:
MDA-MB-231 [1] = test: Induction of mitochondrial dysfunction in human MDA-MB-231 cells assessed as cell with low mitochondrial membrane potential at 15 uM incubated for 48 hrs by JC-1 staining based flow cytometry (reference value: 2.50 %); type: functional
MDA-MB-231 [2] = test: Induction of apoptosis in human MDA-MB-231 cells assessed as early apoptotic cells at 20 uM incubated for 24 hrs by Annexin V-FITC/PI staining based flow cytometry (reference value: 7.39 %); type: functional
MDA-MB-231 [3] = test: Cytotoxicity against human MDA-MB-231 cells incubated for 72 hrs by CCK8 assay; type: functional, cell-based; details: MDA-MB-231, 72 h
MDA-MB-231 [4] = test: Induction of mitochondrial dysfunction in human MDA-MB-231 cells assessed as cell with low mitochondrial membrane potential at 20 uM incubated for 48 hrs by JC-1 staining based flow cytometry (reference value: 2.50 %); type: functional
MDA-MB-231 [5] = test: Induction of apoptosis in human MDA-MB-231 cells assessed as late apoptotic cells at 20 uM incubated for 24 hrs by Annexin V-FITC/PI staining based flow cytometry (reference value: 3.36 %); type: functional
MDA-MB-231 [6] = test: Induction of apoptosis in human MDA-MB-231 cells assessed as late apoptotic cells at 17.5 uM incubated for 24 hrs by Annexin V-FITC/PI staining based flow cytometry (reference value: 3.36 %); type: functional
MDA-MB-231 [7] = test: Induction of apoptosis in human MDA-MB-231 cells assessed as viable cells at 17.5 uM incubated for 48 hrs by Annexin V-FITC/PI staining based flow cytometry (reference value: 91.2 %); type: functional; details: read-out: Activity
MDA-MB-231 [8] = test: Induction of apoptosis in human MDA-MB-231 cells assessed as viable cells at 17.5 uM incubated for 24 hrs by Annexin V-FITC/PI staining based flow cytometry (reference value: 88.2 %); type: functional; details: read-out: Activity
MDA-MB-231 [9] = test: Induction of cell cycle arrest at G2/M phase in human MDA-MB-231 cells at 20 uM incubated for 12 to 24 hrs by PI/RNase staining based flow cytometry relative to control; type: functional; details: time 12-24 hrs
MDA-MB-231 [10] = test: Induction of apoptosis in human MDA-MB-231 cells assessed as necrotic cells at 17.5 uM incubated for 24 hrs by Annexin V-FITC/PI staining based flow cytometry (reference value: 1.06 %); type: functional
MDA-MB-231 [11] = test: Induction of apoptosis in human MDA-MB-231 cells assessed as necrotic cells at 20 uM incubated for 48 hrs by Annexin V-FITC/PI staining based flow cytometry (reference value: 0.33 %); type: functional
MDA-MB-231 [12] = test: Induction of apoptosis in human MDA-MB-231 cells assessed as necrotic cells at 15 uM incubated for 48 hrs by Annexin V-FITC/PI staining based flow cytometry (reference value: 0.33 %); type: functional
MDA-MB-231 [13] = test: Induction of apoptosis in human MDA-MB-231 cells assessed as late apoptotic cells at 20 uM incubated for 48 hrs by Annexin V-FITC/PI staining based flow cytometry (reference value: 2.79 %); type: functional
A549 = test: Cytotoxicity against human A549 cells incubated for 72 hrs by CCK8 assay; type: functional, cell-based; details: A549, 72 h
MDA-MB-231 [14] = test: Induction of apoptosis in human MDA-MB-231 cells assessed as increase in cleaved caspase-9 level upto 20 uM by Western blot analysis; type: functional, cell-based; details: time 24-48 hrs, TDE = time-dependent effect
MDA-MB-231 [15] = test: Induction of apoptosis in human MDA-MB-231 cells assessed as late apoptotic cells at 15 uM incubated for 48 hrs by Annexin V-FITC/PI staining based flow cytometry (reference value: 2.79 %); type: functional
MDA-MB-231 [16] = test: Induction of apoptosis in human MDA-MB-231 cells assessed as early apoptotic cells at 17.5 uM incubated for 48 hrs by Annexin V-FITC/PI staining based flow cytometry (reference value: 5.72 %); type: functional
MDA-MB-231 [17] = test: Induction of apoptosis in human MDA-MB-231 cells assessed as late apoptotic cells at 17.5 uM incubated for 48 hrs by Annexin V-FITC/PI staining based flow cytometry (reference value: 2.79 %); type: functional
MDA-MB-231 [18] = test: Induction of apoptosis in human MDA-MB-231 cells assessed as early apoptotic cells at 15 uM incubated for 24 hrs by Annexin V-FITC/PI staining based flow cytometry (reference value: 7.39 %); type: functional
MDA-MB-231 [19] = test: Induction of apoptosis in human MDA-MB-231 cells assessed as viable cells at 20 uM incubated for 48 hrs by Annexin V-FITC/PI staining based flow cytometry (reference value: 91.2 %); type: functional; details: read-out: Activity
MDA-MB-231 [20] = test: Induction of mitochondrial dysfunction in human MDA-MB-231 cells assessed as cell with low mitochondrial membrane potential at 20 uM incubated for 24 hrs by JC-1 staining based flow cytometry (reference value: 3.68 %); type: functional
MDA-MB-231 [21] = test: Induction of apoptosis in human MDA-MB-231 cells assessed as viable cells at 15 uM incubated for 24 hrs by Annexin V-FITC/PI staining based flow cytometry (reference value: 88.2 %); type: functional; details: read-out: Activity
MDA-MB-231 [22] = test: Induction of apoptosis in human MDA-MB-231 cells assessed as increase in cleaved caspase-9 level incubated for 24 to 48 hrs by Western blot analysis; type: functional, cell-based; details: dose <= 20.0 µM, time 24-48 hrs
MDA-MB-231 [23] = test: Induction of apoptosis in human MDA-MB-231 cells assessed as necrotic cells at 17.5 uM incubated for 48 hrs by Annexin V-FITC/PI staining based flow cytometry (reference value: 0.33 %); type: functional
MDA-MB-231 [24] = test: Induction of apoptosis in human MDA-MB-231 cells assessed as viable cells at 20 uM incubated for 24 hrs by Annexin V-FITC/PI staining based flow cytometry (reference value: 88.2 %); type: functional; details: read-out: Activity
MDA-MB-231 [25] = test: Induction of apoptosis in human MDA-MB-231 cells assessed as viable cells at 15 uM incubated for 48 hrs by Annexin V-FITC/PI staining based flow cytometry (reference value: 91.2 %); type: functional; details: read-out: Activity
MDA-MB-231 [26] = test: Induction of apoptosis in human MDA-MB-231 cells assessed as necrotic cells at 20 uM incubated for 24 hrs by Annexin V-FITC/PI staining based flow cytometry (reference value: 1.06 %); type: functional
MDA-MB-231 [27] = test: Induction of mitochondrial dysfunction in human MDA-MB-231 cells assessed as cell with low mitochondrial membrane potential at 15 uM incubated for 24 hrs by JC-1 staining based flow cytometry (reference value: 3.68 %); type: functional
HepG2 = test: Cytotoxicity against human HepG2 cells incubated for 72 hrs by CCK8 assay; type: functional, cell-based; details: HepG2, 72 h
MDA-MB-231 [28] = test: Induction of mitochondrial dysfunction in human MDA-MB-231 cells assessed as cell with low mitochondrial membrane potential at 17.5 uM incubated for 24 hrs by JC-1 staining based flow cytometry (reference value: 3.68 %); type: functional
MDA-MB-231 [29] = test: Induction of apoptosis in human MDA-MB-231 cells assessed as early apoptotic cells at 20 uM incubated for 48 hrs by Annexin V-FITC/PI staining based flow cytometry (reference value: 5.72 %); type: functional
MDA-MB-231 [30] = test: Induction of apoptosis in human MDA-MB-231 cells assessed as early apoptotic cells at 15 uM incubated for 48 hrs by Annexin V-FITC/PI staining based flow cytometry (reference value: 5.72 %); type: functional
MDA-MB-231 [31] = test: Induction of apoptosis in human MDA-MB-231 cells assessed as necrotic cells at 15 uM incubated for 24 hrs by Annexin V-FITC/PI staining based flow cytometry (reference value: 1.06 %); type: functional
MDA-MB-231 [32] = test: Induction of cell cycle arrest at G2/M phase in human MDA-MB-231 cells incubated for 12 to 24 hrs by PI/RNase staining based flow cytometry; type: functional; details: dose <= 20.0 µM, time 12-24 hrs
MDA-MB-231 [33] = test: Induction of apoptosis in human MDA-MB-231 cells assessed as late apoptotic cells at 15 uM incubated for 24 hrs by Annexin V-FITC/PI staining based flow cytometry (reference value: 3.36 %); type: functional
MDA-MB-231 [34] = test: Induction of apoptosis in human MDA-MB-231 cells assessed as early apoptotic cells at 17.5 uM incubated for 24 hrs by Annexin V-FITC/PI staining based flow cytometry (reference value: 7.39 %); type: functional
MDA-MB-231 [35] = test: Induction of mitochondrial dysfunction in human MDA-MB-231 cells assessed as cell with low mitochondrial membrane potential at 17.5 uM incubated for 48 hrs by JC-1 staining based flow cytometry (reference value: 2.50 %); type: functional

Compound: COC(=O)C[C@]12C=C3C(=O)c4ccccc4O[C@@]3(CC1)[C@H]1C(=O)N(c3ccc(C(F)(F)F)cc3)C(=O)[C@H]12
- Activity (MDA-MB-231 [1]): 70.23%
- Activity (MDA-MB-231 [2]): 18.8%
- IC50 (MDA-MB-231 [3]): 13 µM
- Activity (MDA-MB-231 [4]): 96.87%
- Activity (MDA-MB-231 [5]): 16.8%
- Activity (MDA-MB-231 [6]): 10.3%
- viability at 17.5 µM (MDA-MB-231 [7]): 40.7%
- viability at 17.5 µM (MDA-MB-231 [8]): 72.8%
- Activity (MDA-MB-231 [9]): >15%
- Activity (MDA-MB-231 [10]): 1.7%
- Activity (MDA-MB-231 [11]): 1.87%
- Activity (MDA-MB-231 [12]): 0.7%
- Activity (MDA-MB-231 [13]): 15.2%
- IC50 (A549): 19.3 µM
- Activity (MDA-MB-231 [14]): Tde
- Activity (MDA-MB-231 [15]): 7.51%
- Activity (MDA-MB-231 [16]): 43.4%
- Activity (MDA-MB-231 [17]): 14.5%
- Activity (MDA-MB-231 [18]): 9.01%
- viability at 20 µM (MDA-MB-231 [19]): 26%
- Activity (MDA-MB-231 [20]): 59.57%
- viability at 15 µM (MDA-MB-231 [21]): 84.2%
- Activity (MDA-MB-231 [22]): Dose-Dependent Effect
- Activity (MDA-MB-231 [23]): 1.38%
- viability at 20 µM (MDA-MB-231 [24]): 62.1%
- viability at 15 µM (MDA-MB-231 [25]): 67.4%
- Activity (MDA-MB-231 [26]): 2.33%
- Activity (MDA-MB-231 [27]): 29.07%
- IC50 (HepG2): 15.9 µM
- Activity (MDA-MB-231 [28]): 53%
- Activity (MDA-MB-231 [29]): 56.9%
- Activity (MDA-MB-231 [30]): 24.4%
- Activity (MDA-MB-231 [31]): 0.98%
- Activity (MDA-MB-231 [32]): Dose-Dependent Effect
- Activity (MDA-MB-231 [33]): 5.84%
- Activity (MDA-MB-231 [34]): 15.3%
- Activity (MDA-MB-231 [35]): 92.63%

Compound: COC(=O)C[C@]12C=C3C(=O)c4ccccc4O[C@@]3(CC1)[C@H]1C(=O)N(C)C(=O)[C@H]12
- IC50 (MDA-MB-231 [3]): 37.6 µM
- IC50 (A549): 37.2 µM
- IC50 (HepG2): 16.7 µM

Compound: COC(=O)C[C@]12C=C3C(=O)c4ccccc4O[C@@]3(CC1)[C@H]1C(=O)N(C3CCCCC3)C(=O)[C@H]12
- IC50 (MDA-MB-231 [3]): > 50 µM
- IC50 (A549): > 50 µM
- IC50 (HepG2): > 50 µM

Compound: COC(=O)C[C@]12C=C3C(=O)c4cc(F)ccc4O[C@@]3(CC1)[C@H]1C(=O)N(c3ccc(C(F)(F)F)cc3)C(=O)[C@H]12
- IC50 (MDA-MB-231 [3]): > 50 µM
- IC50 (A549): > 50 µM
- IC50 (HepG2): > 50 µM

Compound: COC(=O)C[C@]12C=C3C(=O)c4ccccc4O[C@@]3(CC1)[C@H]1C(=O)N(c3ccccc3)C(=O)[C@H]12
- IC50 (MDA-MB-231 [3]): 30.5 µM
- IC50 (A549): 41.9 µM
- IC50 (HepG2): 23.6 µM

Compound: COC(=O)C[C@]12C=C3C(=O)c4ccccc4O[C@@]3(CC1)[C@H]1C(=O)NC(=O)[C@H]12
- IC50 (MDA-MB-231 [3]): > 50 µM
- IC50 (A549): > 50 µM
- IC50 (HepG2): > 50 µM

Compound: COC(=O)C[C@]12C=C3C(=O)c4cccc(C)c4O[C@@]3(CC1)[C@H]1C(=O)N(c3ccc(Br)cc3)C(=O)[C@H]12
- IC50 (MDA-MB-231 [3]): 23.4 µM
- IC50 (A549): 29.1 µM
- IC50 (HepG2): 22.5 µM
